This is an account of results in PMC4631608 (Journal of structural and functional genomics, 2015).

This assay addresses M. tuberculosis Rv1496 (Mycobacterium tuberculosis, UniProt P9WPZ1).

Each structure is given as a SMILES string.

Sequence of M. tuberculosis Rv1496 (P9WPZ1 3-336): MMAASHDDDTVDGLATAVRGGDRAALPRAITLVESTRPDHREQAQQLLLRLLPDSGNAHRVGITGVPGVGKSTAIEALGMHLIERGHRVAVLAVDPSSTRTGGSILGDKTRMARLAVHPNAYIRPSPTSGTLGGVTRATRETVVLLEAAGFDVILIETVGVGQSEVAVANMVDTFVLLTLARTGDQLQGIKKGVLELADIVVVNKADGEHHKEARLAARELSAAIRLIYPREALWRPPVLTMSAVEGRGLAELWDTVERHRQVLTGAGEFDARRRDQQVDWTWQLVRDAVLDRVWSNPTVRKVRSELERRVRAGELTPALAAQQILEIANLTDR

For `Nc1nc2c(ncn2[C@@H]2O[C@H](COP(=O)(O)OP(=O)(O)O)[C@@H](O)[C@H]2O)c(=O)[nH]1` [GDP], the “X-ray co-crystal structure, 2.45 Å” value was “Rv1496 binds GDP via hydrogen bonds, one salt bridge, and van der Waals interactions”.
